# From ChEMBL document CHEMBL1201862, “PubChem BioAssay data set” (2004)
# The source made the active and inactive calls.
# Key:
# [1] = molecular target: Glyceraldehyde-3-phosphate dehydrogenase (Homo sapiens, UniProt P04406)
# [2] = molecular target: T1, Alkaline phosphatase, tissue-nonspecific isozyme (Homo sapiens, UniProt P05186); test: human TNAP enzyme inhibitors, SAR follow-up, biochemical, luminescent, dose response (AID 1056)
# T1 sequence (P05186 whole entry): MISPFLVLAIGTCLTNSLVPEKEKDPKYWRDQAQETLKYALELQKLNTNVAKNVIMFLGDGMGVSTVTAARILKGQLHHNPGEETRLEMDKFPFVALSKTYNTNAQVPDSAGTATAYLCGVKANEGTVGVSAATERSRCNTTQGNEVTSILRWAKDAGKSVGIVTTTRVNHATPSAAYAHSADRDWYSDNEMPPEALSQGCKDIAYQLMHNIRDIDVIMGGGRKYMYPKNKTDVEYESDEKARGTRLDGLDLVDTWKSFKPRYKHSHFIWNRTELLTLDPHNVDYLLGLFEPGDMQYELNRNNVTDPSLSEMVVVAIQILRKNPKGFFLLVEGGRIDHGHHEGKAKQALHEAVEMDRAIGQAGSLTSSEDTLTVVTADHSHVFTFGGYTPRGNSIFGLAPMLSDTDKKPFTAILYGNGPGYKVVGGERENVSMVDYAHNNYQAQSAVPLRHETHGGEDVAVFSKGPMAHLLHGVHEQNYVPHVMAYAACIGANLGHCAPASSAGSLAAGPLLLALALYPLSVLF
# [3] = molecular target: T2, Calpain-2 catalytic subunit (Sus scrofa, UniProt P43367); test: pig calpain II inhibitor potency, dose response, biochemical, fluorogenic peptide substrate (AID 1420); assay type: functional
# T2 sequence (P43367 whole entry): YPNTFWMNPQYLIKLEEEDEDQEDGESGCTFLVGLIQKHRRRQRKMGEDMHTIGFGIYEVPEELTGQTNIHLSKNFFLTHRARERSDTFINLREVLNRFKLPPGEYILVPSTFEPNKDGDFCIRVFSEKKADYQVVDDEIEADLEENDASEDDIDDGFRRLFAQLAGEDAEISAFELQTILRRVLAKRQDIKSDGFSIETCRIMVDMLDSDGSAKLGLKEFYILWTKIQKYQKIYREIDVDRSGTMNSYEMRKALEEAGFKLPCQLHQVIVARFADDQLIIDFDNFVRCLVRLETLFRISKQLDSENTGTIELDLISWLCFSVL
# [4] = molecular target: Eukaryotic translation initiation factor 4E (Mus musculus, UniProt P63073); test: eIF4E–eIF4G protein interaction inhibitors, dose response, biochemical, TR-FRET (AID 855); assay type: functional;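 also: potency for disrupting eIF4E binding to eIF4GI seen as loss of FRET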
# Eukaryotic translation initiation factor 4E, sequence (P63073 whole entry): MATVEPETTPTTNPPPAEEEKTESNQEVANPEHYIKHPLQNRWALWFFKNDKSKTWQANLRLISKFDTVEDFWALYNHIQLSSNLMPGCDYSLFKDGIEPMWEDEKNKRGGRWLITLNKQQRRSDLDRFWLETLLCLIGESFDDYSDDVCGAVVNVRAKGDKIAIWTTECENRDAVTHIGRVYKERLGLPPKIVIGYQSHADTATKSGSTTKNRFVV
# [5] = molecular target: T3, Tyrosine-protein phosphatase non-receptor type 22 (Homo sapiens, UniProt Q9Y2R2); assay type: functional
# T3 sequence (Q9Y2R2 whole entry): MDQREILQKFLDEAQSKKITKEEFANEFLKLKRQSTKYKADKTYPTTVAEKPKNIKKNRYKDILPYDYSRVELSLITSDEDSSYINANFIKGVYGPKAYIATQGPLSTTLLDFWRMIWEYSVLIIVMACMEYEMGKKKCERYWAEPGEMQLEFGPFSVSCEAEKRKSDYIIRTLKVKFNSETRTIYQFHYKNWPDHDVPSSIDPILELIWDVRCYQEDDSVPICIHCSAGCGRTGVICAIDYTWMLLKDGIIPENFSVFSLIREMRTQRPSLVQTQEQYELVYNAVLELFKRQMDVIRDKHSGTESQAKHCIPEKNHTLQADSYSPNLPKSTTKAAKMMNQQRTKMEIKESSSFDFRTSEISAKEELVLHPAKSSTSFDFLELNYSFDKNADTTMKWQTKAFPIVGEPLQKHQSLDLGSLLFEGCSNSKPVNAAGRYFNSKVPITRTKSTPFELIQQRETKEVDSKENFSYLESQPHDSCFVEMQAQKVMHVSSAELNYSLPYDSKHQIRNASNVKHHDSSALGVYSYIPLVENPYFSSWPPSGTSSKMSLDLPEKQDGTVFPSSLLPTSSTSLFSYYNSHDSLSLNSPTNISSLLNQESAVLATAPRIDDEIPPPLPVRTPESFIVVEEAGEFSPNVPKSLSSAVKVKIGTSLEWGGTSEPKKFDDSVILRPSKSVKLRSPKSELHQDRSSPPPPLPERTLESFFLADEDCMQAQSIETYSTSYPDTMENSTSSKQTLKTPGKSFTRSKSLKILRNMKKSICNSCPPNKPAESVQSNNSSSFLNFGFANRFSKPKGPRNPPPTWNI
# [6] = molecular target: T4, Tyrosine-protein phosphatase non-receptor type 7 (Homo sapiens, UniProt P35236); assay type: functional
# T4 sequence (P35236 whole entry): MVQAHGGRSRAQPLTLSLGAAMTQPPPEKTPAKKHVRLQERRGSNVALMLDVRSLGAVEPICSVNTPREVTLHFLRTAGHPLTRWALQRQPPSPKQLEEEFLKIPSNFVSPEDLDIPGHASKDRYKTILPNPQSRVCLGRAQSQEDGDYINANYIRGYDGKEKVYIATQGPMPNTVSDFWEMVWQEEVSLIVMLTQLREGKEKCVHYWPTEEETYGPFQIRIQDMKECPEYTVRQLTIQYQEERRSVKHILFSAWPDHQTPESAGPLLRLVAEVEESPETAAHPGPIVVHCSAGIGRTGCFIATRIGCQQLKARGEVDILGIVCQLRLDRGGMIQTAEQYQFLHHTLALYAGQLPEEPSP
# [7] = molecular target: T3, Tyrosine-protein phosphatase non-receptor type 22; assay type: functional; remark: listed apart in the source
# [8] = molecular target: T5, Replicative DNA helicase DnaB (Mycobacterium tuberculosis, UniProt P9WMR3); test: DnaB intein splicing inhibitors, dose response, biochemical, cell-free fluorescence (AID 449749); assay type: functional
# T5 sequence (P9WMR3 whole entry): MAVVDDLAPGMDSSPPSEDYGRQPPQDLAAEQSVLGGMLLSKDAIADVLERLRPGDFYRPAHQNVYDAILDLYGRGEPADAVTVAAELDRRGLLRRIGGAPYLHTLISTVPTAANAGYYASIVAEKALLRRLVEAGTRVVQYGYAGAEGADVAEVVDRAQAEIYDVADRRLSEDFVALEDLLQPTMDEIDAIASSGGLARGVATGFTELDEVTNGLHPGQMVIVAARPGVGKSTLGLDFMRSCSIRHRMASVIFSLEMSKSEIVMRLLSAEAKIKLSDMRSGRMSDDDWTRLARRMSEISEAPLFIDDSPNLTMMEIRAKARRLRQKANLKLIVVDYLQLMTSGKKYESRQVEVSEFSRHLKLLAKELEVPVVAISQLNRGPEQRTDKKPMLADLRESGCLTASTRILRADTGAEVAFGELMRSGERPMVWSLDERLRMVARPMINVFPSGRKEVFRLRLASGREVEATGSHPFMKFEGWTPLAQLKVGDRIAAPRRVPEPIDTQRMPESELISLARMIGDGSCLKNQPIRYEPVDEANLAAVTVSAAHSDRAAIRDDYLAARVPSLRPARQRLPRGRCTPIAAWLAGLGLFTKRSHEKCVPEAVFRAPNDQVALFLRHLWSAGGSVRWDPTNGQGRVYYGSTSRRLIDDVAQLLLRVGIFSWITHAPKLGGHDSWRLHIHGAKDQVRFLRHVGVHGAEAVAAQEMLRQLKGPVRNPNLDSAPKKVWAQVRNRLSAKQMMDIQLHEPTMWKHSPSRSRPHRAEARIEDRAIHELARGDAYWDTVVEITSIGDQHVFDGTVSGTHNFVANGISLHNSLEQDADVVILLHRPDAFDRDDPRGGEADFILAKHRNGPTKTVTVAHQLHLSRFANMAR
# [9] = HepG2 cell cytotoxicity, dose response, cytotoxicity control for non-replicating M. tuberculosis project (AID 489018); assay type: functional; conditions: Mycobacterium tuberculosis
# [10] = molecular target: T6, Protein RecA (Mycobacterium tuberculosis, UniProt P9WHJ3); test: Fluorescence Cell-Free Homogeneous Dose Retest to Identify Inhibitors of RecA-Intein Splicing Activity. [Related pubchem assays (depositor defined):AID2097, AID2223, AID489010, AID492950]; assay type: functional
# T6 sequence (P9WHJ3 whole entry): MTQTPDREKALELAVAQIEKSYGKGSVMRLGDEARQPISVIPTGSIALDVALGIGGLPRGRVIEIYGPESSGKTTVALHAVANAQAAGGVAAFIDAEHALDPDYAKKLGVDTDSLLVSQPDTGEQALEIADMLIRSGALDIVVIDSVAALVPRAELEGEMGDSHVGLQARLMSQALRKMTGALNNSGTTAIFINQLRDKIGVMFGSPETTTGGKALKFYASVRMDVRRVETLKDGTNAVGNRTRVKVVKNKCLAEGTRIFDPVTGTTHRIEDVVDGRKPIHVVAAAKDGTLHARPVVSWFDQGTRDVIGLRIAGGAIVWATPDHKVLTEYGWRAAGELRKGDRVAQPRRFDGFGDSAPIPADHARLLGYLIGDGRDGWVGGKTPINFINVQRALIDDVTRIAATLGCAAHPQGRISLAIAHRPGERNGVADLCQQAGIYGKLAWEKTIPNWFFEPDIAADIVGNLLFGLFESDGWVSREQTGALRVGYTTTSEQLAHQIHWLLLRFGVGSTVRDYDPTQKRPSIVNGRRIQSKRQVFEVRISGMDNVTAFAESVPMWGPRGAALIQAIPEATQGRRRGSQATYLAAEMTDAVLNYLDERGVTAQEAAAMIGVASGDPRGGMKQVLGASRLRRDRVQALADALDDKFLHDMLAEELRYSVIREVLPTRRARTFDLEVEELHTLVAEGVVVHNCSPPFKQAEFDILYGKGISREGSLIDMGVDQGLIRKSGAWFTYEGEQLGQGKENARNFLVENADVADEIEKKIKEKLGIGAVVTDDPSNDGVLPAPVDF
# [11] = THP-1 cell cytotoxicity, dose response, cytotoxicity control for non-replicating M. tuberculosis project (AID 489025); assay type: functional
# [12] = cells; assay type: functional
# [13] = Vero E6 cell cytotoxicity, dose response, cytotoxicity control for non-replicating M. tuberculosis project, secondary assay (AID 492998); assay type: functional, VeroE6; conditions: Vero C1008
# [14] = tested on: HEK293; test: NOD1 signaling inhibitors, primary screen, cell-based, luminescence, uHTS (AID 1578); assay type: functional; conditions: Homo sapiens
# [15] = tested on: HEK293; test: cells; assay type: functional, cell-based; conditions: Homo sapiens
# [16] = tested on: INS1; test: beta cell apoptosis inhibitors, cytokine rescue, dose response, luminescence, retest (AID 449756); assay type: functional, cell-based; conditions: Rattus norvegicus;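 also: cell death triggered by IL-1 beta plus TNF-alpha plus IFN-gamma mixture; protective hits raise ATP signal compared with cytokine alone wells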
# [17] = tested on: HEK293; test: cells; assay type: functional, cell-based; conditions: Homo sapiens; remark: listed apart in the source
# [18] = tested on: HEK293; test: NOD2 signaling inhibitors in MDP-stimulated cells, cell-based, uHTS, luminescence (AID 2001); assay type: functional; conditions: Homo sapiens
# [19] = inhibitors of firefly luciferase expression or activity, dose response, H4 neuroglioma cells, luminescence (AID 1990); assay type: functional, cell-based
# [20] = inhibitors of SNCA 5'UTR-driven reporter translation, confirmation, H4 neuroglioma cells, luminescence (AID 1988); assay type: functional, cell-based
# [21] = Luminescence Cell-Based Dose Response HTS to Identify Inhibitors of 5'UTR Stem-Loop Driven Prion Protein mRNA Translation in H4 Neuroglioblastoma Cells. [Related pubchem assays: 1827 (Project Summary), 1813 (Primary HTS)]; assay type: functional
# [22] = tested on: Vero; test: cells; assay type: functional; conditions: Chlorocebus sabaeus
# [23] = HEp-2 cell cytotoxicity, dose response, cytotoxicity control for RSV inhibitor project, HTS (AID 2410); assay type: functional; conditions: human respiratory syncytial virus
# [24] = tested on: Vero; test: cells; assay type: functional, cell-based; conditions: Chlorocebus sabaeus
# Glyceraldehyde-3-phosphate dehydrogenase, sequence (P04406 whole entry): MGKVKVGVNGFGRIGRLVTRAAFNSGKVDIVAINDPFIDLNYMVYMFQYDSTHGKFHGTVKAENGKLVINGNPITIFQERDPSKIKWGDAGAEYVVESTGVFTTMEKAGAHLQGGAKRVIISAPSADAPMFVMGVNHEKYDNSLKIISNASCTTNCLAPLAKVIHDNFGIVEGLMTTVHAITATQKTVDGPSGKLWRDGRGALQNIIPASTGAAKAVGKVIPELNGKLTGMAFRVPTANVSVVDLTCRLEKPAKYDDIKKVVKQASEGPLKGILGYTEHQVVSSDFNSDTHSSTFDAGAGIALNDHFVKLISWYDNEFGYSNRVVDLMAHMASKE
structure (smiles),measurement,setting,value
CCCCOc1ccc(-c2cc(C(=O)OC)[nH]n2)cc1,IC50,[1],> 100 µM (not active)
same,IC50,[2],0.912 µM (active)
Fc1c(F)c(C(F)(F)F)c(F)c(F)c1N1CCN(c2ccc3nnc(C(F)(F)F)n3n2)CC1,IC50,[3],3.07 µM (not active)
same,IC50,[4],> 64 µM (inactive)
COc1ccccc1N1CCN(C(=O)C2CCN(C(=O)c3ccccc3Cl)CC2)CC1,IC50,[5],> 79.4 µM (inactive)
same,IC50,[6],> 79.4 µM (inactive)
same,IC50,[7],> 79.4 µM (inactive)
Cn1cnc([N+](=O)[O-])c1S(=O)(=O)c1cccc(Cl)c1,AC50,[8],27.7 µM (active)
same,CC50,[9],13 µM (active)
same,EC50,[10],15.8 µM (active)
same,CC50,[11],15.5 µM (active)
same,IC50,[12],5.88 µM (active)
same,CC50,[13],8.33 µM (active)
COC(=O)c1cc(-c2cc(F)c(F)cc2F)n[nH]1,IC50,[1],> 10 µM (inconclusive)
same,IC50,[2],1.07 µM (active)
CC(C)CCNC(=O)c1ccc2c(Cl)c3c(nc2c1)CCC3,IC50,[5],> 79.4 µM (inactive)
same,IC50,[6],> 79.4 µM (inactive)
same,IC50,[7],> 79.4 µM (inactive)
O=C(Cc1cccs1)N1CCN(c2ccc([N+](=O)[O-])cc2)CC1,IC50,[5],> 79.4 µM (inactive)
same,IC50,[6],> 79.4 µM (inactive)
same,IC50,[7],> 79.4 µM (inactive)
O=C(N/N=C/c1cc(Br)c(Br)s1)c1ccncc1,CC50,[9],16.7 µM (active)
same,EC50,[14],> 20 µM (inactive)
same,IC50,[15],> 20 µM (inactive)
same,AC50,[16],3.31 µM (active)
same,IC50,[17],2.13 µM (active)
same,IC50,[18],17.9 µM (inactive)
same,EC50,[19],> 120 µM (not active)
same,CC50,[11],6.79 µM (active)
same,EC50,[20],9.58 µM (active)
same,EC50,[21],16.8 µM (active)
same,IC50,[12],2.64 µM (active)
same,CC50,[13],7.99 µM (active)
CCOc1ccccc1-c1cc(C(=O)N/N=C/c2ccc(O)c(OC)c2)c2ccccc2n1,IC50,[5],> 79.4 µM (inactive)
same,IC50,[6],> 79.4 µM (inactive)
same,IC50,[7],> 79.4 µM (inactive)
same,CC50,[22],> 25 µM (active)
same,CC50,[23],26.7 µM (active)
same,IC50,[24],> 25 µM (active)
